Results from patent publication US20150031572A1, “MEANS AND METHODS FOR ASSESSING NEURONAL TOXICITY” (priority 2012, published 2015).
Counter-ions that a name gives are not always drawn. Marks after values point to notes of the source that are not given here.

How the values were obtained:
[1] = rats exposed to sulcotrione; cited from earlier work
[2] = Plasma metabolite profiling (GC-MS, LC-MS, SPE-LC-MS) of rats dosed once daily over 28 days; treatment ratios versus untreated control; type: in vivo, rat
Summary of the method: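 Male and female rats (5/sex/group) dosed once daily for 28 days; fasted anaesthetized animals bled retro-orbitally (EDTA plasma) on days 7, 14, 28, stored −80 °C under N2. Polar and lipid fractions profiled by GC-MS (derivatized), LC-MS/MRM; steroids by online SPE-LC-MS. Pool-normalized data; treatment ratios vs sex-matched controls, Welch test p-values.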

[3] = plasma, female rats, day 7, high dose, Table 7b
[4] = plasma, female rats, day 14, high dose, Table 7a
[5] = plasma, female rats, day 14, high dose, Table 7b
[6] = plasma, female rats, day 28, high dose, Table 7a
[7] = plasma, female rats, day 28, high dose, Table 7b
[8] = plasma, female rats, day 28, high dose, Table 6a
[9] = plasma, female rats, day 28, high dose, Table 6b
[10] = plasma, female rats, day 28, high dose, Table 8c
[11] = plasma, female rats, day 28, high dose, Table 8d
[12] = plasma, male rats, day 7, high dose, Table 2a
[13] = plasma, male rats, day 7, high dose, Table 2b
[14] = plasma, male rats, day 14, high dose, Table 2b
[15] = plasma, male rats, day 28, high dose, Table 2a
[16] = plasma, male rats, day 28, high dose, Table 2b

In the case of `CS(=O)(=O)c1ccc(C(=O)C2C(=O)CCCC2=O)c(Cl)c1` [sulcotrione], the corneal lesions [1] is listed as “corneal lesions that varied in severity from partial or hazy opacity to complete opacity”.
In the case of `CCC1(c2ccccc2)C(=O)NC(=O)NC1=O` [Phenobarbital sodium], the “3-Indoxylsulfate, ratio versus control” value ([2]; rat, in vivo) is reported as 1.81 *, the “Coenzyme Q9, ratio versus control” value ([2]; rat, in vivo) is reported as 1.08 * and the “Glutamate, ratio versus control” value ([2]; rat, in vivo) is reported as 0.78 *. For the same compound, the “Isoleucine, ratio versus control” value ([2]; rat, in vivo) was 1.12 *, the “Ketoleucine, ratio versus control” value ([2]; rat, in vivo) was 0.88 * and the “Malate, ratio versus control” value ([2]; rat, in vivo) was 0.69 *. The “Pantothenic acid, ratio versus control” value ([2]; rat, in vivo) was 1.33 *, the “Phosphate (inorganic and organic phosphates), ratio versus control” value ([2]; rat, in vivo) was 1.17 * and the “Phosphatidylcholine (C16:0, C20:4), ratio versus control” value ([2]; rat, in vivo) was 0.99 *. The “Phosphatidylcholine (C16:0, C22_6), ratio versus control” value ([2]; rat, in vivo) was 0.93 *, the “Pyruvate, ratio versus control” value ([2]; rat, in vivo) was 0.73 * and the “Valine, ratio versus control” value ([2]; rat, in vivo) was 1.15 *. For the same compound, the “alpha-Tocopherol, ratio versus control” value ([2]; rat, in vivo) was 1.14 * and the “myo-Inositol, ratio versus control” value ([2]; rat, in vivo) was 0.94 *.
For `Fc1ccc([C@@H]2CCNC[C@H]2COc2ccc3c(c2)OCO3)cc1` [Paroxetine hydrochloride], the “alpha-Tocopherol, ratio versus control” value ([2]; plasma, female rats, day 7, high dose, Table 7a) was 1.08, the “Adrenaline (Epi-nephrine), ratio versus control” value [2, 3] was 0.19* and the “Glutamate, ratio versus control” value [2, 3] was 0.7*. For the same compound, the “Serotonin (5-HT), ratio versus control” value [2, 3] was 0.09*, the “4-Hydroxysphinganine (t18:0, Phytosphingosine), total, ratio versus control” value (from here on “4-Hydroxysphinganine … ratio versus control”) [2, 4] was 1.9* and the “Threonine, ratio versus control” value [2, 4] was 1.65*. The “alpha-Tocopherol, ratio versus control” value [2, 4] was 1.31*, the “Adrenaline (Epi-nephrine), ratio versus control” value [2, 5] was 0.36* and the “Glutamate, ratio versus control” value [2, 5] was 0.68*. The “Serotonin (5-HT), ratio versus control” value [2, 5] was 0.07*, the “4-Hydroxysphinganine … ratio versus control” value [2, 6] was 2.11* and the “Threonine, ratio versus control” value [2, 6] was 1.4*. The “Adrenaline (Epi-nephrine), ratio versus control” value [2, 7] was 0.89, the “Glutamate, ratio versus control” value [2, 7] was 0.85 and the “Serotonin (5-HT), ratio versus control” value [2, 7] was 0.04*. The “4-Hydroxysphinganine … ratio versus control” value ([2]; rat, in vivo) was 1.99*, the “Threonine, ratio versus control” value ([2]; rat, in vivo) was 1.41* and the “alpha-Tocopherol, ratio versus control” value ([2]; rat, in vivo) was 1.32*.
With `C#CCN(C)[C@H](C)Cc1ccccc1` [Selegiline hydrochloride] the “3-Methoxytyrosine, ratio versus control” value [2, 8] was 1.38*, the “Isoleucine, ratio versus control” value [2, 8] was 1.18* and the “4-Hydroxy-3-methoxyphenylglycol (HMPG), ratio versus control” value [2, 9] was 0.3*. For the same compound, the “14-Methylhexadecanoic acid, ratio versus control” value [2, 9] was 1.04, the “16-Methylheptadecanoic acid, ratio versus control” value [2, 9] was 0.55* and the “17-Methyloctadecanoic acid, ratio versus control” value [2, 9] was 0.57*. For the same compound, the “Ceramide (d18:1,C24:1), ratio versus control” value [2, 9] was 0.48*, the “Choline plasmalogen No 03, ratio versus control” value [2, 9] was 0.82 and the “Homovanillic acid (HVA), ratio versus control” value [2, 9] was 0.45*. The “Isopalmitic acid (C16:0), ratio versus control” value [2, 9] was 0.69*, the “Lactate, ratio versus control” value [2, 9] was 0.72* and the “Myristic acid (C14:0), ratio versus control” value [2, 9] was 0.97. The “Phosphatidylcholine (C16:0, C20:4), ratio versus control” value [2, 9] was 0.94*, the “Phosphatidylcholine No 04, ratio versus control” value [2, 9] was 0.84 and the “Pyruvate, ratio versus control” value [2, 9] was 0.36*. For the same compound, the “3-Hydroxybutyrate, ratio versus control” value [2, 10] was 1.29 *, the “Isoleucine, ratio versus control” value [2, 10] was 1.18 * and the “TAG (C16:0,C18:2), ratio versus control” value [2, 10] was 1.81 *. For the same compound, the “16-Methylheptadecanoic acid, ratio versus control” value [2, 11] was 0.55 *, the “17-Methyloctadecanoic acid, ratio versus control” value [2, 11] was 0.57 * and the “Ceramide (d18:1,C24:1), ratio versus control” value [2, 11] was 0.48 *. For the same compound, the “Phosphatidylcholine (C16:0, C20:4), ratio versus control” value [2, 11] was 0.94 *, the “Phosphatidylcholine (C18:0, C20:3), ratio versus control” value [2, 11] was 0.92 * and the “Pyruvate, ratio versus control” value [2, 11] was 0.36 *.
In the case of `CC(=O)CCCCn1c(=O)c2c(ncn2C)n(C)c1=O` [Pentoxifylline], the “Choline plasmalogen No 03, ratio versus control” value [2, 12] is reported as 1.01, the “Creatine, ratio versus control” value [2, 12] is reported as 0.95 and the “Isoleucine, ratio versus control” value [2, 12] is reported as 0.93. For the same compound, the “Valine, ratio versus control” value [2, 12] was 0.98*, the “Adrenaline (Epinephrine), ratio versus control” value [2, 13] was 0.34* and the “DAG (C18:1,C18:2), ratio versus control” value [2, 13] was 0.51*. For the same compound, the “Glutamate, ratio versus control” value [2, 13] was 0.74*, the “Glycerol, polar fraction, ratio versus control” value [2, 13] was 0.73* and the “Metanephrine, ratio versus control” value [2, 13] was 0.48*. For the same compound, the “Pyruvate, ratio versus control” value [2, 13] was 0.76*, the “TAG No 07, ratio versus control” value [2, 13] was 0.46* and the “Creatine, ratio versus control” value ([2]; plasma, male rats, day 14, high dose, Table 2a) was 1.36*. For the same compound, the “Adrenaline (Epinephrine), ratio versus control” value [2, 14] was 1.34, the “DAG (C18:1,C18:2), ratio versus control” value [2, 14] was 0.88* and the “Glutamate, ratio versus control” value [2, 14] was 0.84. For the same compound, the “Glycerol, polar fraction, ratio versus control” value [2, 14] was 0.74*, the “Metanephrine, ratio versus control” value [2, 14] was 0.61* and the “Pyruvate, ratio versus control” value [2, 14] was 0.62*. For the same compound, the “TAG No 07, ratio versus control” value [2, 14] was 0.93, the “Choline plasmalogen No 03, ratio versus control” value [2, 15] was 1.14* and the “Creatine, ratio versus control” value [2, 15] was 1.18*. The “Valine, ratio versus control” value [2, 15] was 1.1*, the “Adrenaline (Epinephrine), ratio versus control” value [2, 16] was 0.33* and the “DAG (C18:1,C18:2), ratio versus control” value [2, 16] was 0.72*. For the same compound, the “Glutamate, ratio versus control” value [2, 16] was 0.79*, the “Glycerol, polar fraction, ratio versus control” value [2, 16] was 0.8 and the “Metanephrine, ratio versus control” value [2, 16] was 0.63*. The “Pyruvate, ratio versus control” value [2, 16] was 0.74*, the “TAG No 07, ratio versus control” value [2, 16] was 0.74* and the “Choline plasmalogen No 03, ratio versus control” value ([2]; rat, in vivo) was 1.29*. The “Valine, ratio versus control” value ([2]; rat, in vivo) was 1.05*.
